Consider 2 molecules from patent US20240123079A1 (Seagen Inc., priority 2021, published 2024).

A value given as a limit tells only on which side of the number the result lay.

In one series the test system is Karpas299. Description: Cancer cell direct cytotoxicity assay (CellTiter-Glo), Karpas299. The note with it: Homo sapiens, KARPAS-299; Karpas299, 96 h, free compound; read-out: Compound X50. Format: cell-based. The protocol: (§1) Bystander activity of ADCs was evaluated using Renca cancer cells and THP1-Dual™ cells (InvivoGen) which contain an IRF-Lucia luciferase reporter. Cells were cultured in RPMI-1640 (Gibco) with 10% heat-inactivated fetal bovine serum, Pen-Strep (100 U/ml-100 μg/ml, Gibco), HEPES (10 mM, Gibco), sodium pyruvate (1 mM, Gibco), MEM non-essential amino acids (1×, Gibco), GlutaMAX (1×, Gibco), and beta-mercaptoethanol (55 μM, Gibco). Renca cells were plated in a 96-well flat bottom tissue culture-treated clear polystyrene plate (Corning Costar #3596) at 50,000 cells per well in 100 μL. On the day following the initial plating, 50,000 THP1-Dual™ cells were added to each well with the indicated concentration of ADC in a total volume of 200 μL. Supernatant was harvested at 48 hours post addition of the THP1-Dual™ cells. To measure Lucia reporter signal, 10 μL of supernatant was combined with 40 μL of QUANTI-Luc™ Luminescence assay reagent (Invivogen PN: rep-qlc1) in a 96-well clear flat bottom tissue culture-treated black polystyrene plate (Corning Costar PN: 3603) and read on a Perkin Elmer Envision plate reader. In some experiments, HEK 293T cells engineered to express a murine protein typically expressed by immune cells (target antigen C— an immune cell antigen) were plated as above instead of Renca tumor cells. Cancer Cell Direct Cytotoxicity Assay
(§2) Cancer cells were counted and plated in 40 μL complete growth media in 384-well, white-walled tissue culture treated plates (Corning). Cell plates were incubated at 37° C. and with 5% CO2 overnight to allow the cells to equilibrate. Stock solutions containing ADCs or free drugs were serially diluted in RPMI-1640+20% fetal bovine serum (FBS). 10 μL of each concentration were then added to each cell plate in duplicate. Cells were then incubated at 37° C. and with 5% CO2 for 96 hours, upon which, the cell plates were removed from the incubator and allowed to cool to room temperature for 30 minutes prior to analysis. […] The luminescence of the samples was measured using an EnVision Multimode plate reader (Perkin Elmer, Waltham, MA). […]
For orientation: ATP-based viability assays read luminescence as a measure of living cells.

In a further series the test system is 786-O. Description: Cancer cell direct cytotoxicity assay (CellTiter-Glo), 786-O. Format: cell-based. Particulars: Homo sapiens, 786-0, 96 h, free compound, read-out: Compound X50. On the procedure: as §1, §2
The next series has as its system Ls174T. Description: Cancer cell direct cytotoxicity assay (CellTiter-Glo), Ls174T. The note with it: Homo sapiens, 96 h, free compound, read-out: Compound X50. Format: cell-based. The protocol:
as §1, §2

Series [1] relates to wild type (WT) murine bone marrow-derived macrophages. The series is described as follows: Bone marrow-derived macrophage assay, wild type. Format: cell-based, mouse. Particulars: 24 h. On the procedure: Bone Marrow-Derived Macrophage Assay
Potency of the compounds described herein was evaluated using mouse bone-marrow derived macrophages cultured from wild type (C57BL/6J, the Jackson Laboratory #000664) or STING-deficient (C57BL/6J-Sting1^gt/J, the Jackson Laboratory #017537) mice. Briefly, mouse bone marrow cells were cultured for 7-10 days in RPMI-1640 (Gibco) with 10% heat-inactivated fetal bovine serum, Pen-Strep (100 U/mL-100 μg/mL, Gibco), HEPES (10 mM, Gibco)), sodium pyruvate (1 mM, Gibco), GlutaMAX (1×, Gibco), beta-mercaptoethanol (55 μM, Gibco) and 20-40 ng/mL murine M-CSF (Peprotech, #315-02). Cells were plated in a 96-well flat bottom tissue culture-treated clear polystyrene plate (Corning Costar #3596) at ˜100,000 cells per well in 200 μL with the indicated concentration of the compound. The supernatant was harvested at 24 hours and cytokines were measured using a Milliplex MAP mouse cytokine/chemokine magnetic bead panel assay kit (MCYTOMAG-70k custom 11-plex kit: MCP1, MIP1α, MIP1β, TNFα, IFNγ, IL-10, IL-12p70, IL-1β, IL-6, IP10, RANTES) and analyzed using a Luminex™ MAGPIX™ Instrument System.

The subject of the next series is L540cy. The series is described as follows: Cancer cell direct cytotoxicity assay (CellTiter-Glo), L540cy. Format: cell-based. The note with it: Homo sapiens, 96 h, free compound, read-out: Compound X50. The protocol: as §1, §2
The subject of the next series is BxPC3. Description: Cancer cell direct cytotoxicity assay (CellTiter-Glo), BxPC3. Particulars: Homo sapiens, BXPC-3; BxPC3, 96 h, free compound; read-out: Compound X50. Format: cell-based. On the procedure: as §1, §2
Another series relates to MDAMB231. The series is described as follows: Cancer cell direct cytotoxicity assay (CellTiter-Glo), MDAMB231. Format: cell-based. Particulars: Homo sapiens, MDA-MB-231; MDAMB231, 96 h, free compound; read-out: Compound X50. On the procedure:
as §1, §2

The next series relates to A2058. Description: Cancer cell direct cytotoxicity assay (CellTiter-Glo), A2058. Format: cell-based. The note with it: Homo sapiens; A2058, 96 h, free compound; read-out: Compound X50. The protocol:
as §1, §2

For another series, the system named is DELBVR. The series is described as follows: Cancer cell direct cytotoxicity assay (CellTiter-Glo), DELBVR. Format: cell-based. Particulars: Homo sapiens, 96 h, free compound, read-out: Compound X50. The protocol: as §1, §2
For a further series, the system named is Renca cancer cells. Description: Renca tumor model, in vivo anti-tumor activity and weight change. Particulars: for anti-tumor activity / tumor growth delay: Renca tumor-bearing Balb/c mice. On the procedure: In some experiments, Renca tumor cells were engineered to express the indicated murine or human target antigen.
When tumor volumes reached 100 mm^3, the mice were dosed with either compounds or ADCs by intraperitoneal or intravenous injection at the indicated dosing schedule and tumor volumes were monitored twice weekly. Compounds were formulated in 40% PEG400 in saline.
A syngeneic system was used to assess the ability of the STING agonist ADCs to induce immune responses in vivo and drive an anti-tumor immune response. The Renca system is a subcutaneous, mouse renal adenocarcinoma model. Female Balb/c mice were implanted with 2×10^6 Renca cells subcutaneously in the flank on day 0. When mean tumor size of 100 mm^3 (measured by using the formula Volume (mm^3)=0.5*Length*Width^2 where length is the longer dimension) was reached mice were randomized into treatment groups of ≥5 mice per group. Animals were then treated intraperitoneally (ADCs or compounds) or intravenously (compounds) with the indicated treatment every 7 days, for 3 doses total (or as indicated). Tumor length and width and the weight of the animals was measured throughout the study and tumor volume was calculated using the formula above. Animals were followed until the tumor volume reached ˜1000 mm^3; animals were then euthanized.

A further series relates to SU-DHL-4. Description: Cancer cell direct cytotoxicity assay (CellTiter-Glo), SU-DHL-4. Format: cell-based. Particulars: Homo sapiens; SU-DHL-4, 96 h, free compound; read-out: Compound X50. On the procedure: as §1, §2

As to `CCn1nc(C)cc1C(=O)Nc1nc2cc(C(N)=O)cc(OC)c2n1C/C=C/Cn1c(NC(=O)c2cc(C)nn2CC)nc2cc(C(N)=O)cc(OCCCNC)c21` [Compound 12a], the IC50 in the series on Karpas299 is greater than 1000 nM; in the series on 786-O it was greater than 1000 nM; with Ls174T, greater than 1000 nM; in the series with L540cy it was 83 nM; with BxPC3, greater than 1000 nM; in the series with MDAMB231 it was greater than 1000 nM. Also, the IC50 with A2058 was greater than 1000 nM; with DELBVR, 111 nM; in the series on SU-DHL-4 it was greater than 1000 nM. For the same molecule, the cytokine production result in series [1] is “induced cytokine production”. For the same molecule, in the series on Renca cancer cells (q7dx3), the “anti-tumor activity / tumor growth delay” value is listed as “limited anti-tumor efficacy”.

Consider `CCn1nc(C)cc1C(=O)Nc1nc2cc(C(N)=O)cc(O)c2n1C/C=C/Cn1c(NC(=O)c2cc(C)nn2CC)nc2cc(C(N)=O)cc(OC)c21` [Compound 1, (E)-1-(4-(5-carbamoyl-2-(1-ethyl-3-methyl-1H-pyrazole-5-carboxamido)-7-hydroxy-1H-benzo[d]imidazol-1-yl)but-2-en-1-yl)-2-(1-ethyl-3-methyl-1H-pyrazole-5-carboxamido)-7-methoxy-1H-benzo[d]imidazole-5-carboxamide], for which the IC50 was greater than 1000 nM in the series with Karpas299; greater than 1000 nM in the series on 786-O; greater than 1000 nM with Ls174T; 31 nM in the series with L540cy; greater than 1000 nM with BxPC3; greater than 1000 nM in the series on MDAMB231. Besides, the IC50 in the series on A2058 was greater than 1000 nM; with DELBVR, 16 nM; with SU-DHL-4 it was greater than 1000 nM. Also, the cytokine production entry in series [1] is listed as “induced cytokine production”. Besides, in the series with Renca cancer cells (q7dx3), the “anti-tumor activity / tumor growth delay” value is recorded as “some tumor growth delay”. Moreover, in the series with Renca cancer cells (Renca tumor-bearing mice), the “tolerability” value is “well tolerated”. In addition, in the series on Renca cancer cells (Renca tumor-bearing mice, q7dx3), the “average weight loss after the 1st and 2nd dose” value is listed as less than 5%.
